Measured values taken from ChEMBL document CHEMBL4819056 (Bioorg Med Chem Lett, 2021).
Activity calls are given as the source filed them. The rule behind the calls is not given here.

What was measured:
[1] = target: T1, Aldehyde dehydrogenase 1A1 (Homo sapiens, UniProt P00352); experiment: Inhibition of ALDH1A1 (unknown origin); type: single protein
T1 sequence (P00352 whole entry): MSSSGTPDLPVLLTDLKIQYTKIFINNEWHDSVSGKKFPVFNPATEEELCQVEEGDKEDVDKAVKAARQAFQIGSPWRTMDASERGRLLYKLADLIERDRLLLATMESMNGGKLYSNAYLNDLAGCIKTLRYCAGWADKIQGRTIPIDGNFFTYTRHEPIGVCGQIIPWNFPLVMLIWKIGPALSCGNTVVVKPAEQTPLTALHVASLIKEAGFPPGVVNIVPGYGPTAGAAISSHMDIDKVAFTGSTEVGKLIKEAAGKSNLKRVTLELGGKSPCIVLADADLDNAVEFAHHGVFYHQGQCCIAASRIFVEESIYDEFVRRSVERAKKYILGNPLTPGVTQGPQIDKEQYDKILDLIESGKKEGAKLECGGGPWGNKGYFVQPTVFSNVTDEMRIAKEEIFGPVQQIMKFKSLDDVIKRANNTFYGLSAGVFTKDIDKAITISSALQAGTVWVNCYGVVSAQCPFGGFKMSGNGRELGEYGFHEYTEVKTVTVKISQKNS

[2] = target: T2, Aldehyde dehydrogenase, mitochondrial (Homo sapiens, UniProt P05091); experiment: Inhibition of ALDH2 (unknown origin); type: single protein
T2 sequence (P05091 whole entry): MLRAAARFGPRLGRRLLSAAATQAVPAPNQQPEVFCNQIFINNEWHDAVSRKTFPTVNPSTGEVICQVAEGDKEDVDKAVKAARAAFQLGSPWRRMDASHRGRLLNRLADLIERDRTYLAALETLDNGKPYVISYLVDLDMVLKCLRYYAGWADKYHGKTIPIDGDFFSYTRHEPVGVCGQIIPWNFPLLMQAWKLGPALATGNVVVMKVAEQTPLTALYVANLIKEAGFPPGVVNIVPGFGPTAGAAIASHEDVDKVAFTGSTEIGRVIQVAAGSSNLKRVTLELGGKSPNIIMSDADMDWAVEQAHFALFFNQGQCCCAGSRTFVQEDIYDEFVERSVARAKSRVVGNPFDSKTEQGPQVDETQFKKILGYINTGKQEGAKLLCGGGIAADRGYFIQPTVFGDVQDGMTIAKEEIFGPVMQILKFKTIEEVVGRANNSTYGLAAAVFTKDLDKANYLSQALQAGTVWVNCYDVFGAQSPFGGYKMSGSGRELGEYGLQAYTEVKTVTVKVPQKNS

[3] = target: T3, Aldehyde dehydrogenase 1A1 (Homo sapiens) (UniProt P00352); experiment: Inhibition of ALDH1A1 (unknown origin) in presence of dithiothreitol
T3 sequence (whole entry): T1 sequence (P00352 whole entry)

Row | Compound | IC50 ([1]; read-out: IC50) | IC50 ([2]; read-out: IC50) | inhibition [3] | IC50 [2] | IC50 [1]
1 | CCN(Cc1ccc(O)cc1)C(=S)SSC(=S)N(CC)Cc1ccc(O)cc1 | 210 nM | 10.9 µM | inactive | – | –
2 | Cl.Cl.NCCSSCCN [CYSTAMINE DIHYDROCHLORIDE] | > 100000 nM | – | – | Not Active | –
3 | S=C(SSC(=S)N(Cc1ccccc1)Cc1ccccc1)N(Cc1ccccc1)Cc1ccccc1 [BIS(DIBENZYLAMINETHIOCARBONYL)DISULFIDE] | > 100000 nM | – | – | Not Active | –
4 | CC(=O)NC(CS)C(=O)O (single isomer, unassigned) | – | – | – | Not Active | Not Active
5 | CCCCN(CCCC)C(=S)SSC(=S)N(CCCC)CCCC | 5610 nM | 72.6 µM | – | – | –
6 | CC(C)N(C(=S)SSC(=S)N(C)C)C(C)C | 2850 nM | > 100 µM | – | – | –
7 | CCN(CC)C(=S)SSC(=S)N(CC)CC | – | – | inactive | – | –
8 | S=C(SSC(=S)N1CCOCC1)N1CCOCC1 | 40 nM | 1.43 µM | – | – | –
9 | S=C(SSC(=S)N1CCCCC1)N1CCCCC1 [BIS(PIPERIDINYLTHIOCARBONYL)DISULFIDE] | 50 nM | 1.51 µM | – | – | –
10 | CCN(Cc1ccc(F)cc1)C(=S)SSC(=S)N(CC)Cc1ccc(F)cc1 | – | – | inactive | Not Active | –
11 | CC(C)CN(CC(C)C)C(=S)SSC(=S)N(CC(C)C)CC(C)C | > 100000 nM | – | – | Not Active | –
12 | CCN(Cc1ccccc1)C(=S)SSC(=S)N(CC)Cc1ccccc1 | 270 nM | – | inactive | Not Active | –
13 | CCN(Cc1ccc(C(=O)O)cc1)C(=S)SSC(=S)N(CC)Cc1ccc(C(=O)O)cc1 | 2950 nM | 99.4 µM | – | – | –
14 | Cl.NCCS [CYSTEAMINE HYDROCHLORIDE] | – | – | – | Not Active | Not Active
